The record followed here is patent US20160024052A1, “BENZIMIDAZOLE RETINOIC ACID RECEPTOR-RELATED ORPHAN RECEPTOR MODULATORS AND USES THEREOF” (INNOV17 LLC, priority 2014, published 2016).

Holding throughout (format): cell-based
Holding throughout (conditions): 72 h; human CD4+ T cells under TH17-polarizing conditions, 3 days, supernatant ELISA, 0.1% DMSO
For orientation: ELISA stands for enzyme-linked immunosorbent assay.

One test concerns IL-17A. The test can be described thus: Human TH17 cytokine inhibition measured by ELISA: IL-17A. How it is done: (§1) Human TH17 Cytokine Inhibition as Measured by ELISA
(§2) Peripheral blood mononuclear cells (PBMCs) were sourced from freshly prepared leukocyte enriched plasma (buffy coat) from healthy donors (New York Blood Center). PBMCs were isolated by density gradient centrifugation using Ficoll-Paque™ PLUS (GE Healthcare). Human CD4+ T cells were seeded into 96-well plates (5×10^4 cells/well) and activated with plate-bound anti-human (h)-CD3 antibody and soluble h-aCD28 (both at lug/ml; eBioscience) and differentiated into TH17 cells with 20 ng/mL h-IL-6, 5 ng/mL h-TGF-β1, 10 ng/mL h-IL-23 (eBioscience) and 10 ng/mL IL-1β (Miltenyi Biotec) in serum-free TexMACS Medium (Miltenyi Biotec) supplemented with 1% Penicillin/Streptomycin (Lonza) for 3 days. CD4+ T cells propagated under TH17-polarizing conditions were cultured in the presence or absence of various concentrations of compounds with a final concentration of 0.1% DMSO. Supernatants were collected and stored at −20° C. until assayed for IL-17A, IL-17F and IL-21 levels by “Ready-Set-Go” ELISA kits (eBioscience) as per manufacturer's instructions. Endpoint absorbance was read at 450 nm using a microplate reader (Perkin Elmer).

The subject of the next test is IL-17F. Kind of test: Human TH17 cytokine inhibition measured by ELISA: IL-17F. How it is done: as §1, §2
Another test relates to IL-22. The test can be described thus: Human TH17 cytokine inhibition measured by ELISA: IL-22.
The test system of a further test is IL-21. Kind of test: Human TH17 cytokine inhibition measured by ELISA: IL-21. The protocol: as §1, §2

As to `O=C(c1ccccc1)N1CCC(Cn2cnc3cc(-c4cn[nH]c4)ccc32)CC1` [Example 7, (4-((5-(1H-pyrazol-4-yl)-1H-benzo[d]imidazol-1-yl)methyl)piperidin-1-yl)(phenyl)methanone], the IC50 in the test with IL-17A was above 10 µM; in the test on IL-17F, below 10 µM; in the test on IL-22, below 10 µM; in the test with IL-21 it was below 10 µM.
As for `O=C(Cc1ccccc1)N1CCC(Cn2cnc3cc(-c4cn[nH]c4)ccc32)CC1` [Example 8], the IC50 in the test on IL-17A was above 10 µM; in the test on IL-17F, below 10 µM; with IL-22, below 10 µM; in the test on IL-21, below 10 µM.
As to `O=C(CCc1ccccc1)N1CCC(Cn2cnc3cc(-c4cn[nH]c4)ccc32)CC1` [Example 9, 1-(4-((5-(1H-pyrazol-4-yl)-1H-benzo[d]imidazol-1-yl)methyl)piperidin-1-yl)-3-phenylpropan-1-one], the IC50 with IL-17A, in the test on IL-17F, in the test on IL-22 and with IL-21 was below 10 µM in each case.
`O=C(CC1CCCCC1)N1CCC(Cn2cnc3cc(-c4cn[nH]c4)ccc32)CC1` [Example 10]: the IC50 with IL-17A, in the test with IL-17F, in the test on IL-22 and with IL-21 was below 10 µM each time.
On to `O=S(=O)(c1ccccc1)N1CCC(Cn2cnc3cc(-c4cn[nH]c4)ccc32)CC1` [Example 11, 1-((1-(phenylsulfonyl)piperidin-4-yl)methyl)-5-(1H-pyrazol-4-yl)-1H-benzo[d]imidazole], for which the IC50 in the test on IL-17A, with IL-17F, with IL-22 and with IL-21 was below 10 µM in each case.
On to `O=S(=O)(Cc1ccccc1)N1CCC(Cn2cnc3cc(-c4cn[nH]c4)ccc32)CC1` [Example 12, 1-((1-(benzylsulfonyl)piperidin-4-yl)methyl)-5-(1H-pyrazol-4-yl)-1H-benzo[d]imidazole], for which the IC50 is below 10 µM in the test on IL-17A, below 10 µM with IL-17F, below 10 µM with IL-22 and above 10 µM in the test with IL-21.

What is called IC50 is the point on the concentration scale where inhibition reaches its midpoint. A higher IC50 goes with lower potency.
